From patent publication US6197495A, “Methods using the staphylococcus aureus glycyl tRNA synthetase crystalline structure” (SmithKline Beecham Corporation, priority 1998, dated 2001)

Experiments:
[1] = molecular target: T1, Staphylococcus aureus glycyl tRNA synthetase (GRS), SEQ ID NO:1 (Staphylococcus aureus, UniProt P99129); assay: Stopped-flow tryptophan fluorescence measurement of inhibitor binding to GRS
T1 construct: purified enzyme or crude lysate; homodimer
T1 sequence (P99129 1-463): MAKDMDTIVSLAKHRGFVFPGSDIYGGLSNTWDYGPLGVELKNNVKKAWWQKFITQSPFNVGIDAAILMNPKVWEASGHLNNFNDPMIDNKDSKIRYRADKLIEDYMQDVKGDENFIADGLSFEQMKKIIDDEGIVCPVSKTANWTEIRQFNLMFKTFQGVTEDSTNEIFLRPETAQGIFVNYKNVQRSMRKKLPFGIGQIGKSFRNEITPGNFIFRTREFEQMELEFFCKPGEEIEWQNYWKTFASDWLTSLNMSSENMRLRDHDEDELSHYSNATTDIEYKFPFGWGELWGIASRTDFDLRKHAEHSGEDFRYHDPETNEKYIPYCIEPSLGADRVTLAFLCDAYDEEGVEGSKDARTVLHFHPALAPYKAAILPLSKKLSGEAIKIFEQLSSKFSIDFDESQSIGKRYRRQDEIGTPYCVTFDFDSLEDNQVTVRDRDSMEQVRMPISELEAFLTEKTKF
Description: (§1) Glycylsulfmoyladenosine is an analogue of the Gly-AMP reaction intermediate and inhibits GRS catalytic activity as measured by any of the techniques described in the examples below. Estimates of the potency of inhibition are obtained by performing enzyme assays in the presence of a range of inhibitor concentrations, and fitting the effect of inhibitor concentration on enzyme velocity to a four parameter logistic function that allows calculation of an IC50 (the inhibitor concentration at which GRS activity is reduced by half). […] Binding of glycylsulfamoyladenosine to GRS can also be measured directly using stopped-flow fluorescence techniques because enzyme:inhibitor binary complex has around 5% higher tryptophan fluorescence than the free enzyme. Experiments of this type yield the following elementary rate constants for inhibitor binding; kon =1.1×10^6 s^-1.M^-1, koff =2.9s ^-1 .
(1) Effects of ligand binding upon enzyme intrinsic fluorescence (e.g. of tryptophan). Binding of either natural ligands or inhibitors may result in enzyme conformational changes which alter enzyme fluorescence. Using stopped-flow fluorescence equipment, this can be used to define the microscopic rate constants that describe binding. Alternatively, steady-state fluorescence titration methods can yield the overall dissociation constant for binding in the same way that these are accessed through enzyme inhibition experiments.

[2] = molecular target: T1, Staphylococcus aureus glycyl tRNA synthetase (GRS), SEQ ID NO:1; assay: Aminoacylation assay of GRS catalytic activity in the presence of a range of inhibitor concentrations; assay type: biochemical; details: S. aureus GRS; four parameter logistic fit; tRNA acylation with radiolabelled glycine, 37° C.; read-out: IC50 (the inhibitor concentration at which GRS activity is reduced by half)
Description: as §1
Assays were performed either using purified S. aureus GRS overexpressed in E. coli, or using crude cell lysate from E. coli overexpressing GRS. The latter contained around 10% of total protein as GRS. Enzyme was stored at -70° C. in 50 mM Tris-HCl buffer (pH 7.8), 10 mM MgCl2 and 10 mM B-mercaptoethanol after flash freezing in liquid N2. […]
The assay procedure was as follows. […] The filters were dried at 70° C. for 1 hour and the levels of radioactivity measured by scintillation counting (Packard Topcount). […]

Work on `NCC(=O)NS(=O)(=O)OC[C@H]1O[C@@H](n2cnc3c(N)ncnc32)[C@H](O)[C@@H]1O` [glycylsulfamoyladenosine, 5'-O-Glycylsulfamoyladenosine] yielded a koff [1] of 2.9 s⁻¹, a kon [1] of 1.1e+06 M⁻¹ s⁻¹ and a Kd ([1]; estimate from the ratio of koff and kon) of 2600 nM. It also gave an IC50 [2] of about 2400 nM.
